Reference: patent US20220380432A1, “Acylated Calcitonin Mimetics” (KeyBioscience AG, priority 2018, published 2022)
Numbered stars: 1 amine (or outer) side, 2 acyl side, 3 side chain; on linkers, the order of the positions; unused ones are H or OH. Bridge positions count the residues as written; N and C are the ends. Square brackets hold non-standard residues; d marks the D form. Side chains are listed from the residue outwards. Ends that are not written are not given here. Peptide text beside a SMILES is read from it. * marks the point of attachment. C18 diacid = O=C(O)CCCCCCCCCCCCCCCCC(=O)*; γGlu = O=C(O)[C@H](CCC(=O)[*:2])N[*:1]; AEEA = NCCOCCOCC(=O)O; Aib = CC(C)(N)C(=O)O

Columns and labels:
20 week HFD SD rats = assay: Single dose food intake and body weight test in HFD SD rats (Examples 3, 4, 5, 8, 10, 12); assay type: in vivo, rat; conditions: for Food Intake ΔFOOD Sustained Attenuation (36 nmol/kg) Hours: 36 nmol/kg single dose; for Food Intake ΔFOOD Sustained Attenuation (4 nmol/kg) Hours: Table 4.4: acylation linkers, backbone KBP-066, single s.c. dose 4 nmol/kg, HFD SD rats
From the text: In the animal model studies, 12 week healthy Sprague Dawley (SD) rats were used to assess the potency of the acylated KBPs. In some examples they were fed normal chow during prior and during the tests, whereas in other examples, the 12 week healthy SD rats were fed high fat diet (HFD) for eight weeks prior to the test and for the duration of the test.
(§1) Rats were single caged four days prior to the test. Rats were randomized by weight into eleven groups (Vehicle (0.9% NaCl), KBPs (doses: 36 nmol/kg (150-157 μg/kg)). They were fasted overnight and then treated with a single dose of peptide or vehicle in the morning using subcutaneous administration. Food intake was monitored in the following intervals (0-4 hours, 4-24 hours, 24-48 hours . . . 144-168 hours). Body weight was measured at baseline and every 24 hours post s.c injection.
as §1, with “(doses: 4 nmol/kg (^17 μg/kg), 12 nmol/kg (^50 μg/kg) or” for “(doses:”, “([…]” for “(150-157”
Single high dose effect of A11/3 acylated variants of KBP-042 and KBP-066 on food intake and body weight in 20 week HFD SD rats. Rats were single caged four days prior to the test. Rats were randomized by weight into eleven groups (Vehicle (0.9% NaCl), KBPs (doses: 300 nmol/kg (^1000 μg/kg)).
The rats were fasted overnight and then treated with a single dose of peptide or vehicle in the morning using subcutaneous administration. Food intake was monitored in the following intervals (0-4 hours, 4-24 hours, 24-48 hours . . . […]). Body weight was measured at baseline and every 24 hours post s.c injection.
(§2) Rats were single caged four days prior to the test. Rats were randomized by weight into eight groups (Vehicle (0.9% NaCl), KBPs (doses: 3 nmol/kg (^10-11 μg/kg)). They were fasted overnight and then treated with a single dose of peptide or vehicle in the morning using subcutaneous administration. Food intake was monitored in the following intervals (0-4 hours, 4-24 hours, 24-48 hours, 48-72 hours, and 72-96 hours). Body weight was measured at baseline and at 4 hour, 24 hours, 48 hours, 72 hours and 96 hours post s.c injection.
as §2, with “4” for “3”, “s.c.” for “s.c”, “injection. Two backbones were tested, KBP-066 and KBP-021.” for “injection.”
as §2, with “4” for “3”, “(^13-14” for “(^10-11”

[1] = Thioflavin T (ThT) fibrillation screening assay; assay type: physicochemical; conditions: for Peptide Fibrillation Thioflavin T ΔFluorescence 18 h Assay Score: Table 4.4: acylation linkers, backbone KBP-066, tier from 18 h fluorescence signal, 37° C.
Procedure: Thioflavin T (T3516, Sigma). Assay stock ThT is prepared as a 10 mM solution in 5 mM sodium phosphate pH 7.2. Aliquots are stored, protected from light, at −20° C. Stock ThT is thawed and diluted just prior to use.
For the tested calcitonin mimetics (hereinafter referred to as “acylated KBPs” or simply “KBPs”), final buffer conditions are 10 mM Tris-HCl pH 7.5.
The final peptide concentration in the wells should be 100-200 μM, and the final ThT concentration should be 4 μM. ThT is added last (10 μL).
Thioflavin T assays were also conducted. Thioflavin T (ThT) is a dye widely used for the detection of amyloid fibrils. In the presence of fibrils, ThT has an excitation maximum at 450 nm and enhanced emission at 480 nm, whereas ThT is essentially non-fluorescent at these wavelengths when not bound to amyloid fibrils.
Thus, ThT in combination with a fluorescent plate reader is an ideal tool for screening large numbers of in vitro samples for the presence of amyloid fibrils. […]
The plate is loaded into a fluorescent plate reader, such as a SpectraMax with SoftMax Pro 7.0.2 software, and the template set to 37° C. with excitation wavelength at 450 nm and emission wavelength at 480 nm.
Plate reader should measure fluorescence every 10 minutes for 24 hours with a five-second plate shake before the first read and a three-second plate shake before all other reads. Alternatively, the plate is read after the following incubation times; 0, 1, 2, 4 and 24 hours.
Plot relative fluorescence units (RFU) as a function of time. Fibrillation is determined as an increase in RFU over baseline as described by Nielsen et. al.
In this filing four fibrillations tiers have been defined based on the 18 h fluorescence signal to get a single output that reflects the peptides fibrillation potential: None=<1000 RFU, Low=1000-3000 RFU, Medium=3000-10000, High=>10000

[2] = target: T1, Calcitonin Receptor (CTR) (Homo sapiens (Human), UniProt P30988); assay: cell-based or functional assay
T1 sequence: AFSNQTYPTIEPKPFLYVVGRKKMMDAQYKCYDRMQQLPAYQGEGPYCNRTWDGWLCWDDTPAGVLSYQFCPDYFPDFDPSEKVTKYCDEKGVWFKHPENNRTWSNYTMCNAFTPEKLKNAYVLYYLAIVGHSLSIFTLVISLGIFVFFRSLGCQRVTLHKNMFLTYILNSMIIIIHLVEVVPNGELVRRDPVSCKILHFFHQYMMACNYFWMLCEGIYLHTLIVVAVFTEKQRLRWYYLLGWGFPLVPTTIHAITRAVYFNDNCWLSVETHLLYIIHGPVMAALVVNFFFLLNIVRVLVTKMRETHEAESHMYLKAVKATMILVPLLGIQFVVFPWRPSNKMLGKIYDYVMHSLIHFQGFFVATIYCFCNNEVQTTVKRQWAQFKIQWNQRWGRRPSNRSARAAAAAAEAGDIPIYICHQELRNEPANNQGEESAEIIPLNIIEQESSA

Amylin Receptor (AMY-R) = target: T2, Amylin Receptor (AMY-R) (Homo sapiens (Human), UniProt P30988); assay: cell-based or functional assay
T2 sequence 1: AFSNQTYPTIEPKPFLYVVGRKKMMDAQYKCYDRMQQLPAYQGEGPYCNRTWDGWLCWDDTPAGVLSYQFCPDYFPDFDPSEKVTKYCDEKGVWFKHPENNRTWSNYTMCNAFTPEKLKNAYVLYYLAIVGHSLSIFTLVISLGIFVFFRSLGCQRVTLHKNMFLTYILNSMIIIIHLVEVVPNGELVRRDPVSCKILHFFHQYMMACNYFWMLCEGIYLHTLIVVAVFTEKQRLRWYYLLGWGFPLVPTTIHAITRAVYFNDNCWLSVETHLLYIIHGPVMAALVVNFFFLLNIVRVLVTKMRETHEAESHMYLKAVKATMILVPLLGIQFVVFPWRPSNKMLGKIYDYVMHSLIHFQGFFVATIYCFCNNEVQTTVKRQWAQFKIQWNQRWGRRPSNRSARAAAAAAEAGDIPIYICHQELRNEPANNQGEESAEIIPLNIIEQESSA
T2 sequence 2: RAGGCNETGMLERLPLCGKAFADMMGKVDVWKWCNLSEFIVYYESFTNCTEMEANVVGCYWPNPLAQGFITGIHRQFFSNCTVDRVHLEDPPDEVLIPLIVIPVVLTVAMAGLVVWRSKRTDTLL

Row | Molecule | Food Intake ΔFOOD Sustained Attenuation (36 nmol/kg) Hours (20 week HFD SD rats) [h] | β-arrestin Fold Recruitment EC50 values (10^-9 M) [2] [nM] | β-arrestin Prolonged CTR response (10 nM) tAUC value 0-72 h [2] | β-arrestin Fold Recruitment EC50 values (10^-09 M) (Amylin Receptor (AMY-R)) [nM] | further results
1 | KBP-377: KBP-089 core, A32/3 acylation (Ac-CSNLSTCMLGRLSQDLHRLQTYPKTDVGANAPK; not fully specified (residue 33); ends and bridges not checked) | 72 |  |  |  | 
2 | KBP-372: KBP-042 core, A11/3 acylation (Ac-CSNLSTCVLGKLSQELHKLQTYPRTDVGANAP-NH2; not fully specified (residue 11); ends and bridges not checked) | 96 |  |  |  | protracted in vivo efficacy, high dose test (in words) (20 week HFD SD rats; single s.c. dose 300 nmol/kg): superior protracted in vivo efficacy that lasted for days
3 | CC(=O)N[C@H]1CSSC[C@@H](C(=O)NC(C)(C)C(=O)N[C@@H](CC(C)C)C(=O)NCC(=O)N[C@@H](CCCCNC(=O)COCCOCCNC(=O)COCCOCCNC(=O)COCCOCCNC(=O)CC[C@H](NC(=O)CCCCCCCCCCCCCCCCC(=O)O)C(=O)O)C(=O)N[C@@H](CC(C)C)C(=O)N[C@@H](CO)C(=O)N[C@@H](CCC(N)=O)C(=O)N[C@@H](CC(=O)O)C(=O)N[C@@H](CC(C)C)C(=O)N[C@@H](Cc2c[nH]cn2)C(=O)N[C@@H](CCCNC(=N)N)C(=O)N[C@@H](CC(C)C)C(=O)N[C@@H](CCC(N)=O)C(=O)N[C@H](C(=O)N[C@@H](Cc2ccc(O)cc2)C(=O)N2CCC[C@H]2C(=O)N[C@@H](CCCCN)C(=O)N[C@H](C(=O)N[C@@H](CC(=O)O)C(=O)N[C@H](C(=O)NCC(=O)N[C@@H](C)C(=O)N[C@@H](CC(N)=O)C(=O)N[C@@H](C)C(=O)N2CCC[C@H]2C(N)=O)C(C)C)[C@@H](C)O)[C@@H](C)O)NC(=O)[C@H]([C@@H](C)O)NC(=O)[C@H](CO)NC(=O)[C@H](CC(C)C)NC(=O)[C@H](CC(N)=O)NC(=O)[C@H](CO)NC1=O [KBP-385] (Ac-CSNLSTC[Aib]LGK([AEEA-AEEA-AEEA-γGlu-C18 diacid])LSQDLHRLQTYPKTDVGANAP-NH2; disulfide 1-7 (inferred)) |  |  |  |  | Peptide Fibrillation Thioflavin T ΔFluorescence 18 h Assay Score [1]: None (None=<1000 RFU); Food Intake ΔFOOD Sustained Attenuation (4 nmol/kg) Hours (20 week HFD SD rats): 72 h
4 | CC(=O)N[C@H]1CSSC[C@@H](C(=O)NC(C)(C)C(=O)N[C@@H](CC(C)C)C(=O)NCC(=O)N[C@@H](CCCCNC(=O)COCCOCCNC(=O)CC[C@H](NC(=O)CCCCCCCCCCCCCCCCC(=O)O)C(=O)O)C(=O)N[C@@H](CC(C)C)C(=O)N[C@@H](CO)C(=O)N[C@@H](CCC(N)=O)C(=O)N[C@@H](CC(=O)O)C(=O)N[C@@H](CC(C)C)C(=O)N[C@@H](Cc2c[nH]cn2)C(=O)N[C@@H](CCCNC(=N)N)C(=O)N[C@@H](CC(C)C)C(=O)N[C@@H](CCC(N)=O)C(=O)N[C@H](C(=O)N[C@@H](Cc2ccc(O)cc2)C(=O)N2CCC[C@H]2C(=O)N[C@@H](CCCCN)C(=O)N[C@H](C(=O)N[C@@H](CC(=O)O)C(=O)N[C@H](C(=O)NCC(=O)N[C@@H](C)C(=O)N[C@@H](CC(N)=O)C(=O)N[C@@H](C)C(=O)N2CCC[C@H]2C(N)=O)C(C)C)[C@@H](C)O)[C@@H](C)O)NC(=O)[C@H]([C@@H](C)O)NC(=O)[C@H](CO)NC(=O)[C@H](CC(C)C)NC(=O)[C@H](CC(N)=O)NC(=O)[C@H](CO)NC1=O [KBP-384] (Ac-CSNLSTC[Aib]LGK([AEEA-γGlu-C18 diacid])LSQDLHRLQTYPKTDVGANAP-NH2; disulfide 1-7 (inferred)) |  |  |  |  | fibrillation tier (score in the ThT assay) ([1]; 18 h fluorescence signal): low; Peptide Fibrillation Thioflavin T ΔFluorescence 18 h Assay Score [1]: Low (Low=1000-3000 RFU); Food Intake ΔFOOD Sustained Attenuation (4 nmol/kg) Hours (20 week HFD SD rats): 72 h
5 | KBP-374: KBP-042 core with added C-terminal acylated lysine (A32 type, Table 1) (Ac-CSNLSTCVLGKLSQELHKLQTYPRTDVGANAPK; not fully specified (residue 33); ends and bridges not checked) | 72 |  |  |  | 
6 | Ac-CSNLSTCVLGKLSQELHKLQTYPRTDVGANAP-NH2 (not fully specified (residue 11); ends and bridges not checked) [KBP-372] |  | 7.8 | 1300 | 45.6 | 
7 | Ac-CSNLSTCVLGKLSQELHKLQTYPRTDVGANAPK (not fully specified (residue 33); ends and bridges not checked) [KBP-374] |  | 49.2 | 1070 | 151 | 
8 | Ac-CSNLSTCMLGRLSQDLHRLQTYPKTDVGANAPK (not fully specified (residue 33); ends and bridges not checked) [KBP-377] |  | 66 | 1400 | 73.1 | 
